We go through 6 compounds from patent publication US20230285377A1, “KCNT1 INHIBITORS AND METHODS OF USE” (Praxis Precision Medicines, Inc., priority 2020, published 2023).

A value given as a limit tells only on which side of the number the result lay.

The target of this test is KCNT1 (KNa1.1, Slack) (Homo sapiens (Human), UniProt Q5JUK3). Put plainly: KCNT1-WT-Basal - Patch Clamp Assay. Type of test: cell-based. The conditions noted are these: tetracycline inducible HEK-TREX cell line; SyncroPatch 384PE automated patch clamp; step to 0 mV; room temperature. The procedure: Inhibition of KCNT1 (KNa1.1, Slack) was evaluated using a tetracycline inducible cell line (HEK-TREX). Currents were recorded using the SyncroPatch 384PE automated, patch clamp system. Pulse generation and data collection were performed with PatchController384 V1.3.0 and DataController384 V1.2.1 (Nanion Technologies). The access resistance and apparent membrane capacitance were estimated using built-in protocols. Current were recorded in perforated patch mode (10 µM escin) from a population of cells. The cells were lifted, triturated, and resuspended at 800,000 cells/ml. The cells were allowed to recover in the cell hotel prior to experimentation. Currents were recorded at room temperature. The external solution contained the following (in mM): NaCl 105, NMDG 40, KC1 4, MgC12 1, CaC12 5 and HEPES 10 (pH = 7.4, Osmolarity ~300 mOsm). The extracellular solution was used as the wash, reference and compound delivery solution. The internal solution contained the following (in mM): NaCl 70, KF 70, KC1 10, EGTA 5, HEPES 5 and Escin 0.01 (pH = 7.2, Osmolarity ~295 mOsm). Escin is made at a 5 mM stock in water, aliquoted, and stored at -20° C. The compound plate was created at 2x concentrated in the extracellular solution. The compound was diluted to 1:2 when added to the recording well. The amount of DMSO in the extracellular solution was held constant at the level used for the highest tested concentration. A holding potential of -80 mV with a 100 ms step to 0 mV was used. Mean current was measured during the step to 0 mV. […] The average mean current from 3 sweeps was calculated and the % inhibition of each compound was calculated. The % Inhibition as a function of the compound concentration was fit with a Hill equation to derive IC50, slope, min and max parameters. If KCNT1 inhibition was less than 50% at the highest tested concentration or if an IC50 could not be calculated, then a percent inhibition was reported in place of the IC50.
Sequence of KCNT1 (KNa1.1, Slack) (Q5JUK3 whole entry): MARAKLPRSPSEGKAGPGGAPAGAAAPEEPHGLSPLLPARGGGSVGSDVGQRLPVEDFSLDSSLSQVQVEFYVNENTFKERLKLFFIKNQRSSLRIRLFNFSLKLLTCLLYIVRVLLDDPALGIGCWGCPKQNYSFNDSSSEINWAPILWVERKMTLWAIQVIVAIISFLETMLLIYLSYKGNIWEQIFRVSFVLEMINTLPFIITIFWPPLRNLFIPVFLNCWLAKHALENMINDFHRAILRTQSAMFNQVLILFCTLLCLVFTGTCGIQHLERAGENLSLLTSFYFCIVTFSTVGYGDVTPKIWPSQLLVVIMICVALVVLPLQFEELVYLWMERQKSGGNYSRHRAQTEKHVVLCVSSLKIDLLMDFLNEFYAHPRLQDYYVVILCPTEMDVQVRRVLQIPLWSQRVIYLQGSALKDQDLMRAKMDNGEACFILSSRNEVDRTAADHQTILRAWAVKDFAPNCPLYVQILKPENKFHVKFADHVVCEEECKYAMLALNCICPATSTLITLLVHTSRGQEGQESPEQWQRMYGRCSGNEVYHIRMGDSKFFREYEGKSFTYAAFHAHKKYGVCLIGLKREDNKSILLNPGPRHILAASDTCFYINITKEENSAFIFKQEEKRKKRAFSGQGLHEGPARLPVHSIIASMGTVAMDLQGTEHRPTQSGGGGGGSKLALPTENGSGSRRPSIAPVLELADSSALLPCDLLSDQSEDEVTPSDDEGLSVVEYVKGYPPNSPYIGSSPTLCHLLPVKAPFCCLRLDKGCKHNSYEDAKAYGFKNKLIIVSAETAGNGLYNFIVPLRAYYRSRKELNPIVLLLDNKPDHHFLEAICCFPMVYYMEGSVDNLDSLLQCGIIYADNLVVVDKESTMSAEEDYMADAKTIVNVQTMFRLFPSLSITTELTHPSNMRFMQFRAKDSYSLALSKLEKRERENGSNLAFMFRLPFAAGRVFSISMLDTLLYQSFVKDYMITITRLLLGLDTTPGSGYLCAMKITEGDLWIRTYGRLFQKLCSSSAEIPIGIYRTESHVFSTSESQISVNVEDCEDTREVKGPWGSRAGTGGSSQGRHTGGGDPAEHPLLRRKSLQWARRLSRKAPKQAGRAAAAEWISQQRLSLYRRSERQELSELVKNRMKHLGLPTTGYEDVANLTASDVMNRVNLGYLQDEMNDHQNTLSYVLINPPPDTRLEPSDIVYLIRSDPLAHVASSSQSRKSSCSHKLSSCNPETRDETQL
In this table, “A” indicates IC50 of less than or equal to 1 µM; “B” indicates inhibition of between 1 µM to 20 µM; and “C” indicates inhibition of greater than or equal to 20 µM.
On the technique in general: The patch-clamp technique gives a direct electrical read-out from membranes.
In turn, `CC(NC(=O)c1cc(C(F)(F)F)nn1C)c1nc(-c2ccnc(C(F)(F)F)c2)ns1` (stereo not drawn) [Example 1, 1-methyl-3-(trifluoromethyl)-N-(1-(3-(2-(trifluoromethyl)pyridin-4-yl)-1,2,4-thiadiazol-5-yl)ethyl)-1H-pyrazole-5-carboxamide] registered a concentration for half-maximal inhibition (IC50) of no more than 1 µM.
On to `C[C@H](NC(=O)c1cc(C(F)(F)F)nn1C)c1nc(-c2ccnc(C3CC3)c2)ns1` (single isomer, unassigned) [Example 12], for which the IC50 is no more than 1 µM.
`C[C@H](NC(=O)c1ccccc1)c1cc(-c2ccnc(C(F)(F)F)c2)no1` (single isomer, unassigned) [Example 23]: the IC50 lay within 1 to 20 µM.
In turn, `C[C@@H](NC(=O)N1CCCc2ccccc21)c1cc(-c2ccnc(C(F)(F)F)c2)no1` (single isomer, unassigned) [Example 35] had a half-maximal inhibitory concentration (IC50) of no more than 1 µM.
Under `C[C@H](NC(=O)c1ccccc1)c1nc(-c2ccnc(C3CC3)c2)ns1` [Example 4, (S)-N-(1-(3-(2-cyclopropylpyridin-4-yl)-1,2,4-thiadiazol-5-yl)ethyl)benzamide] stands no more than 1 µM; under `C[C@@H](NC(=O)c1cccc(Cl)c1)c1cc(-c2ccnc(C3CC3)c2)no1` (single isomer, unassigned) [Example 19], no more than 1 µM.

Broadly, the IC50 is the concentration that gives 50% inhibition. A high value points to weaker potency in that assay.
